# Laboratory results reported in patent US10905120B2, “ABA receptor agonists that modulate transpiration” (The Regents of the University of California, priority 2016, dated 2021).
# Where two headings read alike, the source gives them in different places.
# Assays:
# PYR1^I110V mutant [1] = target: T1, PYR1^I110V mutant (Arabidopsis thaliana, UniProt O49686, I110V); details: cited from earlier work
# T1 construct: made in house
# [2] = tested on: Arabidopsis thaliana seeds; experiment: Germination assay; format: in vivo; details: Minimal Inhibitory Concentration, 3 d in darkness after 4 d stratification
# Method: Germination experiments were performed with Arabidopsis thaliana seeds of wildtype Col0, Ler, or mutant backgrounds.
# Seeds were sterilized by 30 sec incubation in 70% ethanol solution followed by a 5 min […] (while vigorously shaking) in a bleach-Tween solution. Afterwards, the sterilizing solutions were removed, and five washes were performed with sterile distilled water. To enhance complete removal of the solutions between the different steps, short centrifuge spins were performed. Finally, the now surface-sterilized seeds were re-suspended in an aseptic 0.1% agar solution to simplify distribution over multiwall plates. One drop of the solution contained on average 20-30 seeds.
# In the multiwell plates, seeds were plated onto 0.7% agar Murashige amd Skoog (MS) plant growth medium containing one-half MS salts and 0.5% sucrose containing different concentrations of ABA, quinabactin, or the compound of interest. After 4 d of stratification at 4° C., the plates were transferred to a growth chamber in darkness and allowed to germinate for 3 d before germination was evaluated. The results are shown above in Table 1 and FIGS. 3A and 3B.
# PYL2 = target: T2, PYL2 (Arabidopsis thaliana, UniProt O80992); experiment: PP2C inhibition assay, recombinant PYL2 receptor; format: biochemical
# T2 sequence (O80992 1-190): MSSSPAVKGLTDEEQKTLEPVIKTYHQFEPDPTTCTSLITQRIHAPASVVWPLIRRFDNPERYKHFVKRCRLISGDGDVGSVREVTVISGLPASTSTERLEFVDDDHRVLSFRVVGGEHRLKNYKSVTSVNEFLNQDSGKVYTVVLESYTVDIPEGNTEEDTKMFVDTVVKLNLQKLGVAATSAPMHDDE
# T2 sequence (Q9CAJ0 23-511 partner): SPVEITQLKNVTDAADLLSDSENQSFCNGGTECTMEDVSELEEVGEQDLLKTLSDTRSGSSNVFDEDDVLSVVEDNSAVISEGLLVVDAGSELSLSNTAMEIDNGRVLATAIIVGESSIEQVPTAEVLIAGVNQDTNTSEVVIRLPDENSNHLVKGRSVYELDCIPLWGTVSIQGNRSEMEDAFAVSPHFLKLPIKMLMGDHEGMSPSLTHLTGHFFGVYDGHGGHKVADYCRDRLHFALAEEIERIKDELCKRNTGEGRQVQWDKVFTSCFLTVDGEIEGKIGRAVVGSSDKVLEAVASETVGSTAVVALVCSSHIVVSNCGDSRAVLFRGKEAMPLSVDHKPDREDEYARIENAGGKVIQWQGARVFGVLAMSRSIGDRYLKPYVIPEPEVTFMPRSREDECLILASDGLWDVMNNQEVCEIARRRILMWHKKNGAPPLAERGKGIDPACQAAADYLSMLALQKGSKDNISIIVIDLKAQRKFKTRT
# Method: (§1) Reactions were started by adding 40 μL of a reaction solution containing 25 mM 4-nitrophenyl phosphate in assay buffer, after which absorbance measurements were immediately collected using a 405 nm on Wallac plate reader. Reactions contained 100 nM PP2C and 200 nM PYR/PYL proteins. […] The dose response data was fitted to a log (inhibitor) vs response-(variable slope) model using non-linear regression to infer the IC50 values using Graph Pad Prism 6.0.
# PYR1 = target: T3, PYR1 (Arabidopsis thaliana, UniProt O49686); experiment: PP2C inhibition assay, recombinant PYR1 receptor; format: biochemical
# T3 sequence (O49686 1-191): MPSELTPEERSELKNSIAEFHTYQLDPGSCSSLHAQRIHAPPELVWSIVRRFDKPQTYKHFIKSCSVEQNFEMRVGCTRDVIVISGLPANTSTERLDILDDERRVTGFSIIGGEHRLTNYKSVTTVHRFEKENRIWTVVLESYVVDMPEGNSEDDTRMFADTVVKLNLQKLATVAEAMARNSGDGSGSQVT
# T3 sequence (Q9CAJ0 23-511 partner): T2 sequence (Q9CAJ0 23-511 partner)
# Method: as §1
# PYL2^V114I mutant [3] = target: T4, PYL2^V114I mutant (Arabidopsis thaliana, UniProt O80992, V114I); details: cited from earlier work
# T4 construct: made in house
# T4 sequence (O80992 whole entry V114I, one chain of several): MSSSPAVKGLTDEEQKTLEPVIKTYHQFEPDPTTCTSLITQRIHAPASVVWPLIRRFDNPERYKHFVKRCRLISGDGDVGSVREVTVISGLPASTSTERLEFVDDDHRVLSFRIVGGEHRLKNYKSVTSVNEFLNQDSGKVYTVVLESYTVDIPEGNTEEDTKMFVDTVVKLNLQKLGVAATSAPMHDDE
# adult Arabidopsis plants = experiment: Thermal imaging assay of sprayed adult plants; format: in vivo; details: sprayed at 50 uM dose on adult Arabidopsis plants; compared with quinabactin and ABA at the same dose
# Description: Molecules that elicit ABA-like effects in vivo typically close guard cells, which arrests transpirational water loss, resulting in less efficient cooling of the leaf surface and a concomitant increase in leaf surface temperature. Infrared thermography has recently emerged as an attractive, noninvasive technique to evaluate plant leaf surface temperature.
# For the adult plants used for thermal imaging, seeds were sterilized as described in Example 3. Afterwards, the seeds were spread onto 0.7% agar MS plant growth medium containing one-half MS salts and 0.5% sucrose. After 4 d of stratification at 4° C., these plates were transferred to a growth chamber in light and allowed to germinate and grow for 7 d. The seedlings then were transferred into soil, and plants of 3-4 wk old were used for thermal imaging. Before thermal imaging, topical spraying of the plants was performed with a water solution containing an active agent (50 μM ABA, quinabactin, or a test compound of interest), 0.5% DMSO, and 0.02% polyalkyleneoxide modified heptamethyltrisiloxane surfactant (Silwet-77). Thermal images were collected just before spraying, 24 h after treatment, and 48 h after treatment. Treated plants were compared to mock-treated plants that had been sprayed with water containing 0.5% DMSO and 0.02% Silwet-77.
# Thermal images were collected at 16 h after treatment. Thermal images were quantified using the Flir tools software version 5.2.15161.1001 by measuring the average leaf temperature of 5-6 leaves per plant. Average temperatures were calculated for 10 replicate plants (in 5 pots) per treatment. Statistical comparisons between the treated and the mock-treated plants were performed using pairwise t-tests. In the graphs represented in FIG. 1B, error bars represent the standard error of mean, asterisks symbols indicate statistical significance, and * indicates p≤0.05, ** for p≤0.01, *** for p≤0.001.
# PYR1^I110V mutant [4] = target: T1, PYR1^I110V mutant; experiment: Phosphatase inhibition assay with PYR1 I110V mutant; format: biochemical
# Method: (§2) Without intending to be bound by theory, subtle changes in the binding pockets of PYR1/PYL2 proteins can dictate the orientation of pyrabactin and contribute towards its selectivity towards PYR1 vs PYL2. […] Cyanabactin's activity was tested with the PYR1^I110V and the reciprocal PYL2^V114I mutants to provide possible insights into its selectivity for PYR1 vs PYL2.
# (§3) Recombinant PYR1^I110V and PYL2^V114I proteins were prepared using a previously described protocol previously (Peterson Peterson, F. C. et al., “Structural Basis for Selective Activation of ABA Receptors,” Nat. Struct. Mol. Biol. 2010, 17 (99), 1109-1113) and tested in absorbance based phosphatase inhibition assay using p-nitrophenol phosphate as substrate as previously described.
# PYL2^V114I mutant [5] = target: T4, PYL2^V114I mutant; experiment: Phosphatase inhibition assay with PYL2 V114I mutant; format: biochemical
# Method: as §2, §3
# [6] = recombinant receptor 200 nM, PP2C 100 nM, 4-nitrophenyl phosphate substrate, absorbance 405 nm, read-out: IC50 PYL2
# [7] = recombinant receptor 200 nM, PP2C 100 nM, 4-nitrophenyl phosphate substrate, absorbance 405 nm, read-out: IC50 PYR1
# [8] = recombinant mutant receptor, p-nitrophenol phosphate substrate
# T1 sequence (O49686 whole entry I110V, one chain of several): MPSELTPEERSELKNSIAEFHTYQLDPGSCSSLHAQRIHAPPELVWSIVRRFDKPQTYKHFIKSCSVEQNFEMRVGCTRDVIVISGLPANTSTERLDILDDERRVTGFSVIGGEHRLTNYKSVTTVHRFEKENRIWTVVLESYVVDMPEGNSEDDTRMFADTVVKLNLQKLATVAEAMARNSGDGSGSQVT
IC50 (PYL2; [6]) [nM],IC50 (PYR1; [7]) [nM],Structure (SMILES),responsiveness of PYR1^I110V mutant as compared to wild-type PYR1 (PYR1^I110V mutant [1]),MIC (μM) Germination [2] [µM],IC50 (PYL2) [nM],IC50 (PYR1) [nM],responsiveness of PYL2^V114I mutant as compared to WT PYL2 (PYL2^V114I mutant [3]),increase of leaf surface temperature (adult Arabidopsis plants),fold less active in PYR1^I110V mutant as compared to WT PYR1 (PYR1^I110V mutant [4]; ratio of IC50s),IC50 (PYR1^I110V mutant [4]; [8]) [nM],fold more active in PYL2^V114I mutant as compared to WT PYL2 (PYL2^V114I mutant [5]; ratio of IC50s) [fold],IC50 (PYL2^V114I mutant [5]; [8]) [nM]
2910 ± 270,100 ± 0.4,"CCCc1cc(NS(=O)(=O)Cc2ccc(C)cc2)ccc1C#N [Ligand Q31, N-(4-Cyano-3-propylphenyl)-1-(4-methylphenyl)methanesulfonamide]",–,10,–,–,–,to a lesser extent,–,–,–,–
969 ± 77,72 ± 15,"CCc1cc(NS(=O)(=O)Cc2ccc(C)cc2)cc(C)c1C#N [Ligand Q30, N-(4-Cyano-3-ethyl-5-methylphenyl)-1-(4-methylphenyl)methanesulfonamide]",–,10,–,–,–,increase the leaf surface temperature significantly,–,–,–,–

# The next lines start with the molecule.
Structure (SMILES),IC50 (PYL2; [6]) [nM],IC50 (PYR1; [7]) [nM],responsiveness of PYR1^I110V mutant as compared to wild-type PYR1 (PYR1^I110V mutant [1]),MIC (μM) Germination [2] [µM],IC50 (PYL2) [nM],IC50 (PYR1) [nM],responsiveness of PYL2^V114I mutant as compared to WT PYL2 (PYL2^V114I mutant [3]),increase of leaf surface temperature (adult Arabidopsis plants),fold less active in PYR1^I110V mutant as compared to WT PYR1 (PYR1^I110V mutant [4]; ratio of IC50s),IC50 (PYR1^I110V mutant [4]; [8]) [nM],fold more active in PYL2^V114I mutant as compared to WT PYL2 (PYL2^V114I mutant [5]; ratio of IC50s) [fold],IC50 (PYL2^V114I mutant [5]; [8]) [nM]
"CC1=CC(=O)CC(C)(C)[C@@]1(O)/C=C/C(C)=C\C(=O)O [ABA, Abscisic acid, reference compound]",–,–,retained responsiveness,1,39 ± 2.3,111 ± 3.8,retained responsiveness,–,–,–,–,–
"CCOc1cc(NS(=O)(=O)Cc2ccc(C)cc2)ccc1C#N [Ligand Q26, N-(4-Cyano-3-ethoxyphenyl)-1-(4-methylphenyl)methanesulfonamide]",7460 ± 469,112 ± 15,–,10,–,–,–,increase the leaf surface temperature significantly,–,–,–,–
O=S(=O)(NCc1ccccn1)c1ccc(Br)c2ccccc12 [pyrabactin],–,–,dramatically loses pyrabactin responsiveness,–,–,–,gains pyrabactin responsiveness,–,–,–,–,–
"Cc1ccc(CS(=O)(=O)Nc2ccc(C#N)c(C3CC3)c2)cc1 [Ligand Q27, N-(4-Cyano-3-cyclopropylphenyl)-1-(4-methylphenyl)methanesulfonamide]",3270,87,–,5,–,–,–,increase the leaf surface temperature significantly,approximately 9 fold,787,3.3,981
"CCc1cc(NS(=O)(=O)Cc2ccc(C)cc2)ccc1C#N [Ligand Q29, N-(4-Cyano-3-ethylphenyl)-1-(4-methylphenyl)methanesulfonamide]",2700 ± 64,48 ± 0.3,–,5,–,–,–,to a lesser extent,–,–,–,–
